Data reported in US10835572B2, “Composition for external application” (ROHTO PHARMACEUTICAL CO., LTD., priority 2014, dated 2020).

Experiment: Discoloration on storage: rate of increase in ΔE*ab (color difference meter)
Type: physicochemical
Conditions: stored 4 days at 60° C. under protection from light; FIG. 4-8
Experimental: 20 ml aliquots of the compositions of the examples and comparative examples were filled into a glass bottle followed by determination of the initial ΔE*ab(0) value with a color difference meter (Spectrophotometer Model CM-5, Konica Minolta). At this time, purified water was used for the reference color. ΔE*ab(0) values are represented by the equation indicated below and used as an indicator to represent the degree of coloring of the compositions of the examples and comparative examples. ΔE*ab={(ΔL*)^2+(Δa*)^2+(Δb*)^2}^1/2 [Equation 1]
The L* value (ΔL*) is a value relating to lightness, the a* value (Δa*) is a value relating to red/green opponent colors in both directions, and the b* value (Δb*) is a value relating to blue/yellow opponent colors in both directions. The compositions of the aforementioned examples and comparative examples were each stored (under protection from light) at 40° C., 50° C. and 60° C. and then taken out after 4 days followed by determination of the ΔE*ab(4) value with the aforementioned color difference meter.
The rate of increase in the ΔE*ab values attributable to being stored for 4 days at the aforementioned temperatures was determined using the equation indicated below. The term “(D65)” in the equation indicates the use of Illuminant D65. Rate of increase in ΔE*ab(D65)=ΔE*ab(65)(4)/[…]

O=C1O[C@H]([C@@H](O)CO)C(O)=C1O[C@H]1O[C@H](CO)[C@@H](O)[C@H](O)[C@H]1O [ascorbyl glucoside]
discoloration, rate of increase in ΔE*ab (in words): discoloration was determined to not occur
